Test results from patent publication US11591341B2 (ALIGOS THERAPEUTICS, INC., priority 2019, dated 2023).

The compounds below were run on HBV (assay: HBV-DNA Antiviral Assay Using HepG2.117 Cells (intracellular HBV DNA by qPCR)). Details: Hepatitis B virus, HepG2.117.
Assay type: cell-based, hepatitis B virus (genotype D)
Procedure: The following assay procedure describes the HBV antiviral assay, using HepG2.117 cells, which carry a stably integrated genotype D HBV genome under the control of a Tet-off promoter, and intracellular HBV DNA quantification as endpoint. Cell viability is assessed in parallel by measuring the intracellular ATP content using ATPlite (Perkin Elmer).
On day 0, HepG2.117 cells (which are maintained in routine cell culture with doxycycline present in the medium at a final concentration of 1 μg/mL) were seeded in 96-well plates (white with clear bottom) at a density of 2.0×10^4 cells/well (0.1 mL/well) in medium without doxycycline to induce pgRNA transcription and subsequent formation of HBV particles. The cells were incubated at 37° C. and 5% CO2.
On day 1, medium was removed from each well, the test articles were diluted in culture medium without doxcycyline and 100 μL was added to cell culture wells (9 concentrations, 4-fold dilution). For each plate, 6 untreated (merely DMSO) wells were included. The final concentration of DMSO in the culture medium was 2%. Each plate was prepared in duplicate (one for HBV DNA extraction, one for ATPlite measurement). The cells were incubated at 37° C. and 5% CO2 for 3 days.
On day 4, cell viability was assessed using ATPlite and cell lysates were prepared for HBV DNA extraction and subsequent quantification by qPCR.
Medium was removed from each well and 100 μL of 0.33% NP-40 in H2O was added to each well. Plates were sealed, incubated at 4° C. for 5 mins, vortexed extensively and centrifuged briefly. Next, 35 μL of lysate was added to 65 μL QuickExtract DNA Extraction Solution (Epicentre) in a PCR plate for each well. PCR plate was incubated at 65° C. for 6 mins, 98° C. for 2 mins and finally cooled to 4° C. HBV DNA was then quantified by qPCR with HBV-specific primers and probes as specified in Table 3 using the Bio-Rad SSOAdvanced Universal Probes Supermix on a CFX96 machine (Bio-Rad). The PCR cycle program consisted of 95° C. for 3 mins, followed by 40 cycles at 95° C. for 10 sec and 60° C. for 30 sec.
A DNA standard was prepared by dilution of an IDT gBlock corresponding to the amplicon with concentrations ranging from 10^2 to 10^8 copies/input (i.e. per 4 μL) and used to generate a standard curve by plotting Cq values vs. HBV DNA standard concentration. The quantity of HBV DNA in each sample was determined by interpolating from the standard curve.
Cell viability was calculated as follows: % Cell viability=(luminescence value of test sample)/(average luminescence value of 2% DMSO control)×100%. HBV DNA inhibition was calculated as follows: 100−(HBV DNA copy number of test sample)/(average HBV DNA copy number of 2% DMSO control)×100%. No normalization to entecavir was required due to the excellent dynamic window of this assay. The CC50, EC50 and EC90 values were determined by dose-response curves fitted by GraphPad Prism using “log (agonist) vs. response—Variable slope”.

Compound | EC50 [nM]
COc1ccc(-n2c(C(=O)NC(C)c3ccc(F)cc3)c3n(c2=O)CCN(C(=O)c2ccc(Br)c(Cl)c2)C3)cc1 (centres unmarked) [Example 141, 7-(4-bromo-3-chloro-benzoyl)-N-[1-(4-fluorophenyl)ethyl]-2-(4-methoxyphenyl)-3-oxo-6,8-dihydro-5H-imidazo[1,5-a]pyrazine-1-carboxamide] | 100 to 500
COc1ccc(-n2c(C(=O)N[C@H](C)c3ccccc3)c3n(c2=O)CCN(C(=O)c2ccc(Br)c(Cl)c2)C3)cc1 (stereo in doubt) [Example 82, 7-(4-bromo-3-chloro-benzoyl)-2-(4-methoxyphenyl)-3-oxo-N-[rac-(1R)-1-phenylethyl]-6,8-dihydro-5H-imidazo[1,5-a]pyrazine-1-carboxamide] | 100 to 500
C[C@H](NC(=O)c1c2n(c(=O)n1-c1ccc(OC3COC3)cc1)CCN(C(=O)c1ccc(Br)c(Cl)c1)C2)c1ccccc1 (stereo in doubt) [Example 169, 7-(4-bromo-3-chloro-benzoyl)-2-[4-(oxetan-3-yloxy)phenyl]-3-oxo-N-[rac-(1S)-1-phenylethyl]-6,8-dihydro-5H-imidazo[1,5-a]pyrazine-1-carboxamide] | 500 to 5000
C[C@@H](NC(=O)c1c2n(c(=O)n1-c1ccc(OC3COC3)cc1)CCN(C(=O)c1ccc(Br)c(Cl)c1)C2)c1ccccc1 (stereo in doubt) [Example 170, 7-(4-bromo-3-chloro-benzoyl)-2-[4-(oxetan-3-yloxy)phenyl]-3-oxo-N-[rac-(1R)-1-phenylethyl]-6,8-dihydro-5H-imidazo[1,5-a]pyrazine-1-carboxamide] | 100 to 500
O=C(NCc1ccccc1)c1c2n(c(=O)n1-c1ccc3[nH]c(C(F)(F)F)cc3c1)CCN(C(=O)c1ccc(Br)c(Cl)c1)C2 [Example 352, N-benzyl-7-(4-bromo-3-chloro-benzoyl)-3-oxo-2-[2-(trifluoromethyl)-1H-indol-5-yl]-6,8-dihydro-5H-imidazo[1,5-a]pyrazine-1-carboxamide] | 500 to 5000
COc1ccc(-n2c(C(=O)N[C@H](C)c3ccccc3F)c3n(c2=O)CCN(C(=O)c2ccc(Br)c(Cl)c2)C3)cc1 (stereo in doubt) [Example 161, 7-(4-bromo-3-chloro-benzoyl)-2-(4-methoxyphenyl)-3-oxo-N-[rac-(1R)-1-(2-fluorophenyl)ethyl]-6,8-dihydro-5H-imidazo[1,5-a]pyrazine-1-carboxamide] | < 100
COc1ccc(-n2c(C(=O)NCc3ccc(CC(N)=O)cc3)c3n(c2=O)CCN(C(=O)c2ccc(Br)c(Cl)c2)C3)cc1 [Example 183, N-[[4-(2-amino-2-oxo-ethyl)phenyl]methyl]-7-(4-bromo-3-chloro-benzoyl)-2-(4-methoxyphenyl)-3-oxo-6,8-dihydro-5H-imidazo[1,5-a]pyrazine-1-carboxamide] | 500 to 5000
C[C@@H]1Cn2c(c3n(c2=O)C[C@@H](F)CN(Cc2ccccc2)C3=O)CN1C(=O)c1ccc(Br)c(Cl)c1 (stereo in doubt) [Example 373, rac-(5R,11S)-13-benzyl-4-(4-bromo-3-chloro-benzoyl)-11-fluoro-5-methyl-4,7,9,13-tetrazatricyclo[7.5.0.0^2,7]tetradec-1-ene-8,14-dione] | 100 to 500
COc1ccc(-n2c(C(=O)NCc3ccc(F)cc3C)c3n(c2=O)CCN(C(=O)c2ccc(Br)c(Cl)c2)C3)cc1 [Example 116, 7-(4-bromo-3-chloro-benzoyl)-N-[(4-fluoro-2-methyl-phenyl)methyl]-2-(4-methoxyphenyl)-3-oxo-6,8-dihydro-5H-imidazo[1,5-a]pyrazine-1-carboxamide] | 100 to 500
O=C1COc2ccc(CNC(=O)c3c4n(c(=O)n3-c3ccc(OC5CC5)cc3)CCN(C(=O)c3ccc(Br)c(Cl)c3)C4)cc2N1 [Example 431, 7-(4-bromo-3-chloro-benzoyl)-2-[4-(cyclopropoxy)phenyl]-3-oxo-N-[(3-oxo-4H-1,4-benzoxazin-6-yl)methyl]-6,8-dihydro-5H-imidazo[1,5-a]pyrazine-1-carboxamide] | 500 to 5000
O=C(NCc1ccccc1)c1c2n(c(=O)n1-c1cccnc1)CCN(C(=O)c1ccc(Cl)c(Cl)c1)C2 [Example 49, N-benzyl-7-(3,4-dichlorobenzoyl)-3-oxo-2-(3-pyridyl)-6,8-dihydro-5H-imidazo[1,5-a]pyrazine-1-carboxamide] | > 5000
CC(C)Oc1ccc(-n2c(C(=O)NCc3ccc4[nH]cnc4c3)c3n(c2=O)CCN(C(=O)c2ccc(Br)c(Cl)c2)C3)cc1 [Example 219, N-(1H-benzimidazol-5-ylmethyl)-7-(4-bromo-3-chloro-benzoyl)-2-(4-isopropoxyphenyl)-3-oxo-6,8-dihdyro-5H-imidazo[1,5-a]pyrazine-1-carboxamide] | 500 to 5000
C[C@@H](Oc1ccc(CNC(=O)c2c3n(c(=O)n2-c2ccc(OCC(F)(F)F)cc2)CCN(C(=O)c2ccc(Br)c(Cl)c2)C3)c(F)c1)C(N)=O (stereo in doubt) [Example 354, 7-(4-bromo-3-chloro-benozyl)-N-[[2-fluoro-4-[rac-(1R)-2-amino-1-methyl-2-oxo-ethoxy]phenyl]methyl]-3-oxo-2-[4-(2,2,2-trifluoroethoxy)phenyl]-6,8-dihydro-5H-imidazo[1,5-a]pyrazine-1-carboxamide] | 500 to 5000
O=C(NCc1ccc(OC(F)F)cc1F)c1c2n(c(=O)n1-c1ccc(OCC(F)(F)F)cc1)CCN(C(=O)c1ccc(Br)c(Cl)c1)C2 [Example 286, 7-(4-bromo-3-chloro-benzoyl)-N-[[4-(difluoromethoxy)-2-fluoro-phenyl]methyl]-3-oxo-2-[4-(2,2,2-trifluoroethoxy)phenyl]-6,8-dihydro-5H-imidazo[1,5-a]pyrazine-1-carboxamide] | 500 to 5000
CNC(=O)c1cccc(-n2c(C(=O)NCc3ccccc3)c3n(c2=O)CCN(C(=O)c2ccc(Br)c(Cl)c2)C3)c1 [Example 48, N-benzyl-7-(4-bromo-3-chloro-benzoyl)-2-[3-(methylcarbamoyl)phenyl]-3-oxo-6,8-dihydro-5H-imidazo[1,5-a]pyrazine-1-carboxamide] | 500 to 5000
CCS(=O)(=O)c1cccc(CNC(=O)c2c3n(c(=O)n2-c2ccc(OC(C)C)cc2)CCN(C(=O)c2ccc(Br)c(Cl)c2)C3)c1 [Example 186, 7-(4-bromo-3-chloro-benzoyl)-N-[(3-ethylsulfonylphenyl)methyl]-2-(4-isopropoxyphenyl)-3-oxo-6,8-dihydro-5H-imidazo[1,5-a]pyrazine-1-carboxamide] | 500 to 5000
C[C@@H](NC(=O)c1c2n(c(=O)n1-c1ccc(OC3CC3)cc1)CCN(C(=O)c1ccc(Br)c(Cl)c1)C2)c1ccc(OCC#N)cc1F (stereo in doubt) [Example 342, 7-(4-bromo-3-chloro-benzoyl)-2-[4-(cyclopropxy)phenyl]-3-oxo-N-[rac-(1R)-1-[4-(cyanomethoxy)-2-fluoro-phenyl]ethyl]-6,8-dihdyro-5H-imidazo[1,5-a]pyrazine-1-carboxamide] | 100 to 500
CNc1ccc(-n2c(C(=O)NCc3ccccc3)c3n(c2=O)CCN(C(=O)c2ccc(Br)c(Cl)c2)C3)cc1 [Example 311, N-benzyl-7-(4-bromo-3-chloro-benzoyl)-2-[4-(methylamino)phenyl]-3-oxo-6,8-dihydro-5H-imidazo[1,5-a]pyrazine-1-carboxamide] | 100 to 500
COc1ccc(-n2c(C(=O)NCc3cccc(C(F)(F)F)c3)c3n(c2=O)CCN(C(=O)c2ccc(Br)c(Cl)c2)C3)cc1 [Example 152, 7-(4-bromo-3-chloro-benzoyl)-2-(4-methoxyphenyl)-3-oxo-N-[[3-(trifluoromethyl)phenyl]methyl]-6,8-dihydro-5H-imidazo[1,5-a]pyrazine-1-carboxamide] | 100 to 500
COc1ccc(CNC(=O)c2c3n(c(=O)n2-c2ccc(C#N)cc2)CCN(C(=O)c2ccc(Br)c(Cl)c2)C3)c(C)c1 [Example 163, 7-(4-bromo-3-chloro-benzoyl)-2-(4-cyanophenyl)-N-[(4-methoxy-2-methyl-phenyl)methyl]-3-oxo-6,8-dihydro-5H-imidazo[1,5-a]pyrazine-1-carboxamide] | 500 to 5000
